Assay results as given in patent US20260138978A1, “POSITIVE ALLOSTERIC MODULATORS OF THE MUSCARINIC ACETYLCHOLINE RECEPTOR M1” (Vanderbilt University, priority 2022, published 2026).
pEC50: −log10 of the molar value.

What was measured:
human mAChRM1 [1] = target: T1, human mAChRM1 (Homo sapiens, UniProt P11229); assay: mAChR M1 cell-based functional assay (calcium mobilization), agonist activity upon compound addition, Emax relative to acetylcholine maximum; conditions: for Agonist Activity Human M1 EC50 / pEC50: calcium mobilization upon compound addition; for Emax: relative to the maximum for acetylcholine
T1 construct: host or cells: CHO-K1
T1 sequence (P11229 1-460): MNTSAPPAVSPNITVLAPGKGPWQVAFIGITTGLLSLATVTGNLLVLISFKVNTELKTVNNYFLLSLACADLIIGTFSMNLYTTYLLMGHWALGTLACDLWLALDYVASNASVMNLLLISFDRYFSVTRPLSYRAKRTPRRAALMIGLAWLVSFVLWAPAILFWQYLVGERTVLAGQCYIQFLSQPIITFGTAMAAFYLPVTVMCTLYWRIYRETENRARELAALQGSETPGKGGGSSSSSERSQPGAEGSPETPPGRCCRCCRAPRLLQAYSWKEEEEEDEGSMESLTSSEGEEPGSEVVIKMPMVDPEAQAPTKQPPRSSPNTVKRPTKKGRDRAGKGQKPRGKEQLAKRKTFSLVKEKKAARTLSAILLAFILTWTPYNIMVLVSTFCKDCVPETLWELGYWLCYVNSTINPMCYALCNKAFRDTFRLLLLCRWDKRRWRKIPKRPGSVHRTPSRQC
Outline: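 Emax is given as a percentage of the maximal acetylcholine response, from four-parameter curves of compound-evoked calcium mobilization. Human M1-transfected CHO-K1 cells carried Fluo-4 dye, and compound (11 concentrations, 1:3 steps) was applied at 4 s of a 300 s kinetic fluorescence recording.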

human mAChRM1 [2] = target: T1, human mAChRM1; assay: mAChR M1 cell-based functional assay (calcium mobilization), positive allosteric modulator activity: increase in the EC20 acetylcholine response; conditions: for Emax: PAM mode; for pEC50: increase in the EC20 acetylcholine response, read-out: PAM Activity Human M1 EC50
Outline: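 Potentiation is scored as the rise in an EC20 acetylcholine-evoked calcium signal across 11-point (1:3) compound series, fitted with a four-parameter logistic equation to give EC50 and Emax. Read-out is Fluo-4 fluorescence ratio in hM1-transfected CHO-K1 cells, measured kinetically on FDSS.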

| Agonist Activity Human M1 EC50 (human mAChRM1 [1]) | Emax (human mAChRM1 [2]) | pEC50 (human mAChRM1 [2]) | pEC50 (human mAChRM1 [1]) | Emax (human mAChRM1 [1]) | Structure (SMILES) |
| --- | --- | --- | --- | --- | --- |
| inactive | 75% | 5.29 | – | – | CC(C)c1cnc2c(c1)C(=O)N(Cc1c(F)cc(-c3ccc(C(C)(C)O)c4nn(C)cc34)cc1F)C2 [Compound 177, 6-(2,6-difluoro-4-(7-(2-hydroxypropan-2-yl)-2-methyl-2H-indazol-4-yl)benzyl)-3-isopropyl-6,7-dihydro-5H-pyrrolo[3,4-b]pyridin-5-one] |
| inactive | 78% | 5.96 | – | – | CCc1cnc2c(c1)C(=O)N(Cc1c(F)cc(-c3ccc(C(C)(C)O)c4nn(C)cc34)cc1F)C2 [Compound 176, 6-(2,6-difluoro-4-(7-(2-hydroxypropan-2-yl)-2-methyl-2H-indazol-4-yl)benzyl)-3-ethyl-6,7-dihydro-5H-pyrrolo[3,4-b]pyridin-5-one] |
| – | 89% | 7.00 | 5.25 | 58% | [2H]C1([2H])c2ncccc2C(=O)N1Cc1c(C)cc(-c2ccc(C(C)(C)O)c3nn(C)cc23)cc1F (single isomer, unassigned) [Compound 144, 6-(2-fluoro-4-(7-(2-hydroxypropan-2-yl)-2-methyl-2H-indazol-4-yl)-6-methylbenzyl)-6,7-dihydro-5H-pyrrolo[3,4-b]pyridin-5-one-7,7-d2] |
| – | 62% | 6.84 | 5.42 | 12% | [2H]C1([2H])c2ncccc2C(=O)N1Cc1c(F)cc(-c2ccc(C(C)(C)O)c3nn(C([2H])([2H])[2H])cc23)cc1F [Compound 145, 6-(2,6-difluoro-4-(7-(2-hydroxypropan-2-yl)-2-(methyl-d3)-2H-indazol-4-yl)benzyl)-6,7-dihydro-5H-pyrrolo[3,4-b]pyridin-5-one-7,7-d2] |
| inactive | 73% | 5.66 | – | – | Cn1cc(-c2cc(F)c(CN3Cc4ncccc4C3=O)c(F)c2)c2ccc(C(C)(C)O)cc21 [Compound 40, 6-(2,6-difluoro-4-(6-(2-hydroxypropan-2-yl)-1-methyl-1H-indol-3-yl)benzyl)-6,7-dihydro-5H-pyrrolo[3,4-b]pyridin-5-one] |
| – | 77% | 5.55 | ≤ 5.00 | 12% | CC(C)(O)c1cc2c(-c3cc(F)c(CN4Cc5ncccc5C4=O)c(F)c3)cccn2n1 [Compound 107, 6-(2,6-difluoro-4-(2-(2-hydroxypropan-2-yl)pyrazolo[1,5-a]pyridin-4-yl)benzyl)-6,7-dihydro-5H-pyrrolo[3,4-b]pyridin-5-one] |
| inactive | 66% | 5.92 | – | – | CC(C)(O)c1ccc(-c2cc(F)c(CN3Cc4ncccc4C3=O)cc2F)cc1 [Compound 49, 6-((2,5-difluoro-4′-(2-hydroxypropan-2-yl)-[1,1′-biphenyl]-4-yl)methyl)-6,7-dihydro-5H-pyrrolo[3,4-b]pyridin-5-one] |
| inactive | 81% | 5.34 | – | – | CC(C)(O)c1ccc(-c2ccc(CN3Cc4cccnc4C3=O)c(F)c2)cc1 [Compound 127, 6-((3-fluoro-4′-(2-hydroxypropan-2-yl)-[1,1′-biphenyl]-4-yl)methyl)-5,6-dihydro-7H-pyrrolo[3,4-b]pyridin-7-one] |
| inactive | 83% | 6.09 | – | – | CC(C)(O)c1ccc(-c2cc(F)c(CN3Cc4ncccc4C3=O)c(C3CC3)c2)cc1 [Compound 10, 6-((3-cyclopropyl-5-fluoro-4′-(2-hydroxypropan-2-yl)-[1,1′-biphenyl]-4-yl)methyl)-6,7-dihydro-5H-pyrrolo[3,4-b]pyridin-5-one] |
| inactive | 76% | 6.23 | – | – | Cn1cc2cc(-c3cc(F)c(CN4Cc5cccc(F)c5C4=O)cc3F)cc(C(C)(C)O)c2n1 [Compound 169, 2-(2,5-difluoro-4-(7-(2-hydroxypropan-2-yl)-2-methyl-2H-indazol-5-yl)benzyl)-7-fluoroisoindolin-1-one] |
| inactive | 68% | 5.84 | – | – | CC(C)(O)c1ccc(-c2cc(F)c(CN3Cc4cccnc4C3=O)c(F)c2)cc1 [Compound 117, 6-((3,5-difluoro-4′-(2-hydroxypropan-2-yl)-[1,1′-biphenyl]-4-yl)methyl)-5,6-dihydro-7H-pyrrolo[3,4-b]pyridin-7-one] |
| inactive | 77% | ≤ 5.00 | – | – | CN(C)c1cc(-c2ccc(C(C)(C)O)c3nn(C)cc23)cc(F)c1CN1Cc2cccnc2C1=O [Compound 125, 6-(2-(dimethylamino)-6-fluoro-4-(7-(2-hydroxypropan-2-yl)-2-methyl-2H-indazol-4-yl)benzyl)-5,6-dihydro-7H-pyrrolo[3,4-b]pyridin-7-one] |
| inactive | 66% | 5.99 | – | – | CC(C)(O)c1ccc(-c2cc(F)c(CN3Cc4ncccc4C3=O)c(Cl)c2)cc1 [Compound 45, 6-((3-chloro-5-fluoro-4′-(2-hydroxypropan-2-yl)-[1,1′-biphenyl]-4-yl)methyl)-6,7-dihydro-5H-pyrrolo[3,4-b]pyridin-5-one] |
| inactive | 69% | 5.70 | – | – | CC(C)(O)c1ccc(-c2cc(F)c(CN3Cc4ncccc4C3=O)c(F)c2)cc1Cl [Compound 8, 6-((3′-chloro-3,5-difluoro-4′-(2-hydroxypropan-2-yl)-[1,1′-biphenyl]-4-yl)methyl)-6,7-dihydro-5H-pyrrolo[3,4-b]pyridin-5-one] |
| inactive | 59% | 5.33 | – | – | Cn1cc2c(-c3cc(F)c(CN4Cc5c(F)cccc5C4=O)c(F)c3)ccc(C(C)(C)O)c2n1 [Compound 106, 2-(2,6-difluoro-4-(7-(2-hydroxypropan-2-yl)-2-methyl-2H-indazol-4-yl)benzyl)-4-fluoroisoindolin-1-one] |
| inactive | 71% | 5.35 | – | – | CCC(O)(c1ccc(-c2cc(F)c(CN3Cc4ncccc4C3=O)c(F)c2)c2cn(C)nc12)C(F)(F)F (stereo not shown) [Compound 81, 6-(2,6-difluoro-4-(2-methyl-7-(1,1,1-trifluoro-2-hydroxybutan-2-yl)-2H-indazol-4-yl)benzyl)-6,7-dihydro-5H-pyrrolo[3,4-b]pyridin-5-one] |
| inactive | 71% | 5.71 | – | – | Cn1cc2cc(-c3ccc(CN4Cc5cccc(F)c5C4=O)c(F)c3F)cc(C(C)(C)O)c2n1 [Compound 170, 2-(2,3-difluoro-4-(7-(2-hydroxypropan-2-yl)-2-methyl-2H-indazol-5-yl)benzyl)-7-fluoroisoindolin-1-one] |
| inactive | 85% | 6.44 | – | – | CC[C@@](C)(O)c1ccc(-c2cc(F)c(CN3Cc4ncccc4C3=O)c(F)c2)c2cn(C)nc12 [Compound 102, (R)-6-(2,6-difluoro-4-(7-(2-hydroxybutan-2-yl)-2-methyl-2H-indazol-4-yl)benzyl)-6,7-dihydro-5H-pyrrolo[3,4-b]pyridin-5-one] |
| inactive | 74% | 5.51 | – | – | Cc1cc(-c2cc(C(C)(C)O)c3nn(C)cc3c2)ccc1CN1Cc2cccc(F)c2C1=O [Compound 167, 7-fluoro-2-(4-(7-(2-hydroxypropan-2-yl)-2-methyl-2H-indazol-5-yl)-2-methylbenzyl)isoindolin-1-one] |
| inactive | 56% | ≤ 5.00 | – | – | Cn1cc(-c2ccc(CN3Cc4ncccc4C3=O)c(F)c2)c(C(C)(C)O)n1 [Compound 29, 6-(2-fluoro-4-(3-(2-hydroxypropan-2-yl)-1-methyl-1H-pyrazol-4-yl)benzyl)-6,7-dihydro-5H-pyrrolo[3,4-b]pyridin-5-one] |
| inactive | 67% | 6.02 | – | – | Cn1cc2cc(-c3ccc(CN4Cc5ncccc5C4=O)cc3)cc(C(C)(C)O)c2n1 [Compound 36, 6-(4-(7-(2-hydroxypropan-2-yl)-2-methyl-2H-indazol-5-yl)benzyl)-6,7-dihydro-5H-pyrrolo[3,4-b]pyridin-5-one] |
| inactive | 50% | 5.29 | – | – | Cc1c(C(C)(C)O)ccc(-c2cc(F)c(CN3Cc4ncccc4C3=O)c(F)c2)c1F [Compound 56, 6-((2′,3,5-trifluoro-4′-(2-hydroxypropan-2-yl)-3′-methyl-[1,1′-biphenyl]-4-yl)methyl)-6,7-dihydro-5H-pyrrolo[3,4-b]pyridin-5-one] |
| – | 82% | 6.60 | 5.16 | 11% | Cn1cc2c(-c3cc(F)c(CN4Cc5ncccc5C4=O)c(F)c3)ccc(C3(O)COC3)c2n1 [Compound 89, 6-(2,6-Difluoro-4-(7-(3-hydroxyoxetan-3-yl)-2-methyl-2H-indazol-4-yl)benzyl)-6,7-dihydro-5H-pyrrolo[3,4-b]pyridin-5-one] |
